Results published in patent publication US7632666B2 (priority 2005, dated 2009).

Key:
[1] = target: haloalkane dehalogenase LinB (Sphingobium indicum, UniProt D4Z2G1); type: biochemical, Sphingomonas paucimobilis UT26
[2] = target: haloalkane dehalogenase DhlA (Xanthobacter autotrophicus, UniProt P22643); type: biochemical, Xanthobacter autotrophicus GJ10
[3] = target: haloalkane dehalogenase DhaA (Rhodococcus rhodochrous, UniProt P0A3G2); type: biochemical, Rhodococcus rhodochrous NCIMB 13064
[4] = target: haloalkane dehalogenase DbjA (Bradyrhizobium diazoefficiens, UniProt P59337); type: biochemical, Bradyrhizobium japonicum USDA110
[5] = target: haloalkane dehalogenase LinB L177T (Sphingobium indicum, UniProt D4Z2G1, L177T); type: biochemical
[6] = target: haloalkane dehalogenase LinB L177G (Sphingobium indicum, UniProt D4Z2G1, L177G); type: biochemical
[7] = target: haloalkane dehalogenase LinB L177W (Sphingobium indicum, UniProt D4Z2G1, L177W); type: biochemical
[8] = target: haloalkane dehalogenase LinB L177R (Sphingobium indicum, UniProt D4Z2G1, L177R); type: biochemical
[9] = target: haloalkane dehalogenase LinB L177Y (Sphingobium indicum, UniProt D4Z2G1, L177Y); type: biochemical
[10] = target: haloalkane dehalogenase LinB L177Q (Sphingobium indicum, UniProt D4Z2G1, L177Q); type: biochemical
[11] = target: haloalkane dehalogenase LinB L177K (Sphingobium indicum, UniProt D4Z2G1, L177K); type: biochemical
[12] = target: haloalkane dehalogenase LinB L177M (Sphingobium indicum, UniProt D4Z2G1, L177M); type: biochemical
[13] = target: haloalkane dehalogenase LinB L177V (Sphingobium indicum, UniProt D4Z2G1, L177V); type: biochemical
[14] = target: haloalkane dehalogenase LinB L177F (Sphingobium indicum, UniProt D4Z2G1, L177F); type: biochemical
[15] = target: haloalkane dehalogenase LinB L177H (Sphingobium indicum, UniProt D4Z2G1, L177H); type: biochemical
[16] = target: haloalkane dehalogenase LinB L177A (Sphingobium indicum, UniProt D4Z2G1, L177A); type: biochemical
[17] = target: haloalkane dehalogenase LinB L177D (Sphingobium indicum, UniProt D4Z2G1, L177D); type: biochemical
[18] = target: haloalkane dehalogenase LinB L177C (Sphingobium indicum, UniProt D4Z2G1, L177C); type: biochemical
[19] = target: haloalkane dehalogenase LinB L177S (Sphingobium indicum, UniProt D4Z2G1, L177S); type: biochemical
[20] = target: haloalkane dehalogenase LinB wild type (Sphingobium indicum, UniProt D4Z2G1); type: biochemical, Sphingomonas paucimobilis UT26
haloalkane dehalogenase LinB wild type, sequence (D4Z2G1 whole entry): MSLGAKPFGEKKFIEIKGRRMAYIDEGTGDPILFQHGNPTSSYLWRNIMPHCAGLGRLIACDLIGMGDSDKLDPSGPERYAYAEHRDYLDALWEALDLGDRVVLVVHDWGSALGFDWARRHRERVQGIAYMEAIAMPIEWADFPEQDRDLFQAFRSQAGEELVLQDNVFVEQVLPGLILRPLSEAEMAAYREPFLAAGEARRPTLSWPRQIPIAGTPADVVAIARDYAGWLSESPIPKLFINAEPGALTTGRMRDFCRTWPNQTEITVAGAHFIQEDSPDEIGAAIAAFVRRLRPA

haloalkane dehalogenase LinB, sequence (D4Z2G1 whole entry): as above
haloalkane dehalogenase DhlA, sequence (P22643 whole entry): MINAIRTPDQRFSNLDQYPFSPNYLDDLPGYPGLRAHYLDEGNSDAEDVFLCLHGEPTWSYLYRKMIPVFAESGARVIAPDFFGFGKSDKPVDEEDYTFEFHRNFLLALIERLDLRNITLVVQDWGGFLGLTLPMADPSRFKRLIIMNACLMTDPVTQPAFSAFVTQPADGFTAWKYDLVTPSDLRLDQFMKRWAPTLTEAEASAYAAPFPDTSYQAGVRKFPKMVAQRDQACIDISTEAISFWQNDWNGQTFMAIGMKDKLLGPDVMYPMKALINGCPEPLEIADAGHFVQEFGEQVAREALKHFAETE
haloalkane dehalogenase DbjA, sequence (P59337 whole entry): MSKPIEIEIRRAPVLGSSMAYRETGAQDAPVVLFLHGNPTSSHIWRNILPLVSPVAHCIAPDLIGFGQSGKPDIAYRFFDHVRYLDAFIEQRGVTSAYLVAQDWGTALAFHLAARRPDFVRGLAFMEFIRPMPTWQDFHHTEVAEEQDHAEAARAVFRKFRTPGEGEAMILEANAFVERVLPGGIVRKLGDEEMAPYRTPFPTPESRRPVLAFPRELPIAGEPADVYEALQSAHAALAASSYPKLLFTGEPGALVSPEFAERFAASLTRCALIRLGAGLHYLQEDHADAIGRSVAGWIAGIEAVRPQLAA
haloalkane dehalogenase DhaA, sequence (P0A3G2 whole entry): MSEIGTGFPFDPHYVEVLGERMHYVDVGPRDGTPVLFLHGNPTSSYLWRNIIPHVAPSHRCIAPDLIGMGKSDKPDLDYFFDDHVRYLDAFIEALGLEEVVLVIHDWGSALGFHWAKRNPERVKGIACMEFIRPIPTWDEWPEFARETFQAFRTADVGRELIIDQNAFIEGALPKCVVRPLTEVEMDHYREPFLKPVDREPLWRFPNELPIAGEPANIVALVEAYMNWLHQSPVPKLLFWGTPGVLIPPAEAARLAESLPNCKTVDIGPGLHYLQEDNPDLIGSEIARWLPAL
haloalkane dehalogenase LinB L177D, sequence (D4Z2G1 whole entry L177D, looked up): as the sequence (D4Z2G1 whole entry) above, with L177D counted along it
haloalkane dehalogenase LinB L177H, sequence (D4Z2G1 whole entry L177H, looked up): as the sequence (D4Z2G1 whole entry) above, with L177H counted along it
haloalkane dehalogenase LinB L177W, sequence (D4Z2G1 whole entry L177W, looked up): as the sequence (D4Z2G1 whole entry) above, with L177W counted along it
haloalkane dehalogenase LinB L177F, sequence (D4Z2G1 whole entry L177F, looked up): as the sequence (D4Z2G1 whole entry) above, with L177F counted along it
haloalkane dehalogenase LinB L177A, sequence (D4Z2G1 whole entry L177A, looked up): as the sequence (D4Z2G1 whole entry) above, with L177A counted along it
haloalkane dehalogenase LinB L177C, sequence (D4Z2G1 whole entry L177C, looked up): as the sequence (D4Z2G1 whole entry) above, with L177C counted along it
haloalkane dehalogenase LinB L177Q, sequence (D4Z2G1 whole entry L177Q, looked up): as the sequence (D4Z2G1 whole entry) above, with L177Q counted along it
haloalkane dehalogenase LinB L177G, sequence (D4Z2G1 whole entry L177G, looked up): as the sequence (D4Z2G1 whole entry) above, with L177G counted along it
haloalkane dehalogenase LinB L177Y, sequence (D4Z2G1 whole entry L177Y, looked up): as the sequence (D4Z2G1 whole entry) above, with L177Y counted along it
haloalkane dehalogenase LinB L177R, sequence (D4Z2G1 whole entry L177R, looked up): as the sequence (D4Z2G1 whole entry) above, with L177R counted along it
haloalkane dehalogenase LinB L177S, sequence (D4Z2G1 whole entry L177S, looked up): as the sequence (D4Z2G1 whole entry) above, with L177S counted along it
haloalkane dehalogenase LinB L177M, sequence (D4Z2G1 whole entry L177M, looked up): as the sequence (D4Z2G1 whole entry) above, with L177M counted along it
haloalkane dehalogenase LinB L177V, sequence (D4Z2G1 whole entry L177V, looked up): as the sequence (D4Z2G1 whole entry) above, with L177V counted along it
haloalkane dehalogenase LinB L177K, sequence (D4Z2G1 whole entry L177K, looked up): as the sequence (D4Z2G1 whole entry) above, with L177K counted along it
haloalkane dehalogenase LinB L177T, sequence (D4Z2G1 whole entry L177T, looked up): as the sequence (D4Z2G1 whole entry) above, with L177T counted along it

Structure (SMILES)	E-values LinB [1]	E-values DhlA [2]	E-values DhaA [3]	E-values DbjA [4]	further results
CC(C)(C)C(Br)CBr (racemic) [1,2-dibromo-3,3-dimethylbutane]	1.1				
CCC(Br)CBr (racemic) [1,2-dibromobutane]	10	1.1	2	2.7	
CC(Br)CCBr (racemic) [1,3-dibromobutane]	4.6	2	1.3	1.4	
CC(Cl)CCCl (racemic) [1,3-dichlorobutane]	2.6	2.8	1.6	1.0	
CC(CCl)CBr (racemic) [1-bromo-3-chloro-2-methylpropane]	1.8	1.8	1.7	1.4	
CCCCCC(C)Br (racemic) [2-bromoheptane]	2.8	2.4	2.9	28	
CCCCC(C)Br (racemic) [2-bromohexane]	12		4	35	
COC(=O)C(Br)CCBr (racemic) [methyl 2,4-dibromobutyrate]	1.9	1.6	1	1.3	
BrCCBr [1,2-dibromoethane]					Relative activities (% of wt) L177T [5]: 107 % of wt; Relative activities (% of wt) L177G [6]: 78 % of wt; Relative activities (% of wt) L177W [7]: 7 % of wt; Relative activities (% of wt) L177R [8]: 68 % of wt; Relative activities (% of wt) L177Y [9]: 16 % of wt; Relative activities (% of wt) L177Q [10]: 123 % of wt; Relative activities (% of wt) L177K [11]: 97 % of wt; Relative activities (% of wt) L177M [12]: 126 % of wt; Relative activities (% of wt) L177V [13]: 84 % of wt; Relative activities (% of wt) L177F [14]: 70 % of wt; Relative activities (% of wt) L177H [15]: 55 % of wt; Relative activities (% of wt) L177A [16]: 155 % of wt; Km [17]: 14 mM; Relative activities (% of wt) L177D [17]: 77 % of wt; Relative activities (% of wt) L177C [18]: 52 % of wt; Relative activities (% of wt) L177S [19]: 84 % of wt; Relative activities (% of wt) wt1 [20]: 100 % of wt; Relative activities (% of wt) wt2 [20]: 100 % of wt
CC(Br)CBr (stereo not drawn) [1,2-dibromopropane]	1.3	3	1.3	2.6	
CC(Cl)CCl (stereo not drawn) [1,2-dichloropropane]		2			
